Tested on: yellow fever mosquitoes (Aedes aegypti)
Assay: whole plant or invertebrate
Details: for Colby Expected: 3 days after exposure
Description: Glass vials (20 mL scintillation) were treated with 445 μL of varying concentrations of α-cypermethrin dissolved in acetone, respectively dinotefuran or mixtures of α-cypermethrin and dinotefuran in the indicated ratios. Vials were turned on their sides and placed on an automated roller table. The vials were rolled (6 rpm) uncapped to allow an even coating of the treatment.
After rolling, vials were allowed to completely dry for at least an hour. Each treatment was replicated five times. Prior to exposure, yellow fever mosquitoes (Aedes aegypti) were incapacitated using a chill table. Approximately six mosquitoes were placed into each vial and were exposed to treatments at room temperature for exactly one hour. A small amount of CO2 was used to incapacitate the mosquitoes to facilitate removal from treatment. Insects were then transferred to 16 oz plastic holding containers. A cotton wick moistened with 10% sugar water was provided in each container. Holding containers were moved into an incubator with environmental conditions of 27° C. and 80% relative humidity. Wicks were rehydrated daily and mortality was assessed at 3 days after exposure (DAE).
Ataxia+mortality data were used to determine whether there was a synergistic effect in the combined use of dinotefuran and α-cypermethrin.
Abbott's correction for control mortality and the Colby method for testing synergy were used to analyze combination data. […] Colby's expected mortality per combination observation=% mortality (A)+% mortality (B)−(% mortality (A)×% mortality (B))/100. Synergy ratio=% observed mortality/% Colby expected mortality.
Additive interactions have synergy ratios equal to 1, antagonistic interactions have synergy ratios of less than 1, and synergistic interactions have synergy ratios of greater than 1.

Compound	mortality at 0.00732 mg/m2 (Aedes aegypti, 72 h)	Colby Expected (Table 1, expected mortality of the combination 0.00732 + 0.0732 mg/m^2 by Colby's formula)	Colby Expected (Table 2, expected mortality of the combination 0.00732 + 7.32 mg/m^2 by Colby's formula)	mortality at 0.0732 mg/m2 (Aedes aegypti, 72 h)	mortality at 7.32 mg/m2 (Aedes aegypti, 72 h)
CC1(C)C(C=C(Cl)Cl)C1C(=O)OC(C#N)c1cccc(Oc2ccccc2)c1 (racemic) [Alpha-cypermethrin, racemate comprising (R)-α-cyano-3-phenoxybenzyl (1S, 3S)-3-(2,2-dichlorovinyl)-2,2-dimethylcyclopropanecarboxylate; (S)-α-cyano-3-phenoxybenzyl (1R, 3R)-3-(2,2-dichlorovinyl)-2,2-dimethylcyclopropanecarboxylate]	13.9%	13.9%	13.9%		
CNC(=N[N+](=O)[O-])NCC1CCOC1 (racemic) [Dinotefuran, (RS)-1-methyl-2-nitro-3-(tetrahydro-3-furylmethyl) guanidine]				0%	0%
